Test results as given in patent US20170314074A1, “LPA-ASSOCIATED PROTEIN AND RNA EXPRESSION” (Intermune, Inc., priority 2014, published 2017).

Test system: normal human lung fibroblasts
Test: mRNA expression after LPA induction, Affymetrix Human Gene ST arrays, fibroblasts (Table 4A)
Assay type: cell-based
Settings: LPA-induced fibroblasts; 1 μM BMS-986020; average of 3 experiments
Protocol: Changes in gene expression after 3 hours of LPA induction were profiled on Affymetrix Human Gene ST 2.0 microarrays; differentially expressed genes identified by ANOVA with FDR <0.05 and fold-change >1.2. Process networks associated with differentially expressed genes were defined using MetaCore. Changes in secreted protein expression after 24 hours of LPA induction were profiled on an aptamer-based proteomic platform (1129 proteins); differentially expressed proteins identified by t-test.
Total RNA was isolated from normal human lung fibroblasts, human bronchial epithelial cells, and human pulmonary alveolar epithelial cells treated for […] with LPA and/or LPAR1 inhibitor. Each treatment condition was assayed in triplicate. Samples were profiled on Affymetrix Human Gene ST Arrays 1.0 and/or 2.0 after preparation using the Ambion WT Expression Kit according to manufacturers' instructions.
Data normalization and all subsequent analyses were performed in Partek Genomics Suite (Partek, St. Louis, Mo.). Data were normalized using the Robust Multi-array Average (RMA) algorithm. Differentially expressed genes were identified by ANOVA with correction for multiple comparisons with p-value with FDR<0.05. A fold-change cut-off was not strictly applied, although the majority of the differentially expressed genes identified have fold-changes greater than 1.2. Genes were included if they were statistically significant for (1) LPA-induction and (2) response to treatment with an LPAR1 inhibitor.
In Tables 1-5 The differentially expressed secreted proteins set forth in Tables 1, 2, and 5 and the differentially expressed mRNAs set forth in Table 3 and 4 were identified by visual inspection of individual dot-plots.
For the gene and protein expression analysis primary fibroblasts (NHLF product #CC-2512 from Lonza group LTD) and primary epithelial cells (NHBE Product #CC-2540 from Lonza; HPAEpiC Product #3200 from Sciencell (USA, California)) were cultured as recommended by the manufacturer, except they were cultured on collagen coated plates. As part of the induction protocol cells were starved overnight in low (0.2 or 0.1% serum) or no serum (0%), prior to stimulation with LPA.

Cc1noc(-c2ccc(-c3ccc(C4(C(=O)O)CC4)cc3)cc2)c1NC(=O)O[C@H](C)c1ccccc1 [BMS-986020]
Effect of 1 μM BMS-986020 relative to induced cells (fold-change), BIRC3 mRNA: −3.33 fold-change | Effect of 1 μM BMS-986020 relative to induced cells (fold-change), CHIC2 mRNA: −2.40 fold-change | Effect of 1 μM BMS-986020 relative to induced cells (fold-change), CNST mRNA: −2.32 fold-change | Effect of 1 μM BMS-986020 relative to induced cells (fold-change), CTGF mRNA: −4.62 fold-change | Effect of 1 μM BMS-986020 relative to induced cells (fold-change), CYR61 mRNA: −7.53 fold-change | Effect of 1 μM BMS-986020 relative to induced cells (fold-change), DKK1 mRNA: −6.16 fold-change | Effect of 1 μM BMS-986020 relative to induced cells (fold-change), DUSP1 mRNA: −2.56 fold-change | Effect of 1 μM BMS-986020 relative to induced cells (fold-change), EFNB2 mRNA: −2.63 fold-change | Effect of 1 μM BMS-986020 relative to induced cells (fold-change), GPR37 mRNA: −3.13 fold-change | Effect of 1 μM BMS-986020 relative to induced cells (fold-change), HAS2 mRNA: −2.89 fold-change | Effect of 1 μM BMS-986020 relative to induced cells (fold-change), HBEGF mRNA: −5.41 fold-change | Effect of 1 μM BMS-986020 relative to induced cells (fold-change), IER3 mRNA: −3.28 fold-change | Effect of 1 μM BMS-986020 relative to induced cells (fold-change), IL6 mRNA: −4.08 fold-change | Effect of 1 μM BMS-986020 relative to induced cells (fold-change), KPRP mRNA: −3.81 fold-change | Effect of 1 μM BMS-986020 relative to induced cells (fold-change), KRTAP1-5 mRNA: −6.89 fold-change | Effect of 1 μM BMS-986020 relative to induced cells (fold-change), KRTAP4-12 mRNA: −3.90 fold-change | Effect of 1 μM BMS-986020 relative to induced cells (fold-change), LIF mRNA: −5.07 fold-change | Effect of 1 μM BMS-986020 relative to induced cells (fold-change), MCP-1/CCL2 mRNA: −5.99 fold-change | Effect of 1 μM BMS-986020 relative to induced cells (fold-change), MIR218-1: −2.82 fold-change | Effect of 1 μM BMS-986020 relative to induced cells (fold-change), PAI-1 mRNA: −2.43 fold-change | Effect of 1 μM BMS-986020 relative to induced cells (fold-change), PDCD1LG2 mRNA: −2.51 fold-change | Effect of 1 μM BMS-986020 relative to induced cells (fold-change), PTX3 mRNA: −2.49 fold-change | Effect of 1 μM BMS-986020 relative to induced cells (fold-change), SERPINB2 mRNA: −2.64 fold-change | Effect of 1 μM BMS-986020 relative to induced cells (fold-change), TNFAIP3 mRNA: −3.68 fold-change | Effect of 1 μM BMS-986020 relative to induced cells (fold-change), TXNIP mRNA: 4.41 fold-change | Effect of 1 μM BMS-986020 relative to induced cells (fold-change), UGCG mRNA: −2.52 fold-change | Effect of 1 μM BMS-986020 relative to induced cells (fold-change), VGLL3 mRNA: −2.97 fold-change
